In patent EP4818157A1, “N-SUBSTITUTED CYCLIC AMIDE COMPOUND” (Kissei Pharmaceutical Co., Ltd., priority 2023, dated 2025):

Each compound was assayed against T1, human TSHR (Homo sapiens, UniProt P16473) (assay: Measurement of antagonist activity using TSH-induced cAMP production in human TSHR-stably expressing CHO cells). Conditions: human TSH final concentration 50 ng/mL.
T1 construct: expressed in transfected cells
Format: cell-based
Experimental: Measurement of Antagonist Activity Using TSH-induced cAMP Production in Human TSHR-stably Expressing CHO Cells as an Indicator
A gene sequence of human TSHR (reference number NM_000369.2) was inserted into a multiple cloning site of pcDNA3.1(+). The prepared plasmid vector was introduced into CHO cells by a lipofection method to establish human TSHR stably expressing CHO cells. The obtained cells were seeded in a poly-D-lysine-coated 96-well plate at 5 x 10^4 cells/well, and cultured for 1 day in F12 medium containing 10% FBS, 400 µg/mL G418, 50 U/mL penicillin, and 50 µg/mL streptomycin under conditions of 37°C and 5% CO2. After removing a medium, the cells were washed twice with 100 µL per well of an assay buffer (Hanks' Balanced Salt Solution containing 20 mM HEPES and 1 mM IBMX). 30 µL of an assay buffer containing a test compound was added to a well, and the mixture was incubated at room temperature for 15 minutes. Next, 30 µL of an assay buffer containing human TSH (R&D Systems, Inc., final concentration 50 ng/mL) was added, and the mixture was incubated at 37°C for 1 hour. The supernatant was removed, and Lysis and Detection Buffer 2 (Cisbio) was added to prepare a cell lysate by incubating at room temperature for 1 hour. According to the instructions for use of a cAMP Gs HiRange kit (Cisbio), a cell lysate was reacted with d2-labeled cAMP and an anti-cAMP Europium Cryptate labeled antibody (Cisbio) in a 384-well white microplate. Next, a fluorescence intensity ratio (measurement wavelengths 665 nm/620 nm) was measured using a multiplate reader (PHERAstar FSX, BMG LABTECH Japan). A fluorescence intensity ratio of each sample was converted into a cAMP content using a standard curve. A cAMP content was converted into a percentage of a control value, and a cAMP production rate was calculated. Using Prism (Graph Pad Software Inc.), a cAMP production rate was plotted against a test compound concentration, and an IC50 value was calculated. The IC50 of each test compound is shown in the above tables. In the tables, IC50 < 3.0 µM was denoted as A, and 3.0 µM ≤ IC50 < 30 µM was denoted as B. The case where activity was observed but an IC50 value could not be calculated was denoted as C.

T1 sequence (P16473 21-764): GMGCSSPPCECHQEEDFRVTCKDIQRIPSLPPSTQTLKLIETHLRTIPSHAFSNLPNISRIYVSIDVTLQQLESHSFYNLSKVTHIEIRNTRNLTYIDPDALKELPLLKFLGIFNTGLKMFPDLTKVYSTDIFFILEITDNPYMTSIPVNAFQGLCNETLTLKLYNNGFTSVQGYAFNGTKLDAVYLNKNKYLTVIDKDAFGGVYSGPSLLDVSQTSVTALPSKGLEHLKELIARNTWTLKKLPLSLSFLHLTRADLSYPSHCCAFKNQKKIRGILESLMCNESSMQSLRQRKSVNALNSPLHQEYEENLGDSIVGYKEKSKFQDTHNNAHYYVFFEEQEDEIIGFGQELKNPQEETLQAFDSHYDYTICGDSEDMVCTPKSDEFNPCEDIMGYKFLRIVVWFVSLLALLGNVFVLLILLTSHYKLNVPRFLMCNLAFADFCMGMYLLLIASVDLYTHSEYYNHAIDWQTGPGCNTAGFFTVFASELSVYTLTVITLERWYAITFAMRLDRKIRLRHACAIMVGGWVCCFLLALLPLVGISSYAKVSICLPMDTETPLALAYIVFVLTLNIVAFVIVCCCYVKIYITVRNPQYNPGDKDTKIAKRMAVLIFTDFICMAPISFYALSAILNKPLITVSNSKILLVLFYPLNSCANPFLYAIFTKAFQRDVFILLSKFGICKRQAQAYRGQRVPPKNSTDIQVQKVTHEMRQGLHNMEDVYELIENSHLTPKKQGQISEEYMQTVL

Row | SMILES | IC50
1 | NC(=O)Nc1cc(CCC(=O)O)cn(Cc2cc(C(F)(F)F)ccc2F)c1=O [Example B-2, 3-(1-(2-fluoro-5-(trifluoromethyl)benzyl)-6-oxo-5-ureido-1,6-dihydropyridin-3-yl)propanoic acid] | > 30 µM
2 | Cc1cnc(NC(N)=O)c(=O)n1Cc1cc(C(F)(F)F)cc(Cl)c1F [Example B-9, 1-(4-(3-chloro-2-fluoro-5-(trifluoromethyl)benzyl)-5-methyl-3-oxo-3,4-dihydropyrazin-2-yl)urea] | 3 to 30 µM
3 | Cc1cccc(CN2C(=O)[C@H](NC(N)=O)Cc3ccccc32)c1 [Example C-1, (R)-1-(1-(3-methylbenzyl)-2-oxo-1,2,3,4-tetrahydroquinolin-3-yl)urea] | 3 to 30 µM
4 | N#Cc1cccc(CN2C(=O)[C@H](NC(N)=O)Cc3ccccc32)c1 [Example C-2, (R)-1-(1-(3-cyanobenzyl)-2-oxo-1,2,3,4-tetrahydroquinolin-3-yl)urea] | > 30 µM
5 | COc1cccc(CN2C(=O)[C@H](NC(N)=O)Cc3ccccc32)c1 [Example C-3, (R)-1-(1-(3-methoxybenzyl)-2-oxo-1,2,3,4-tetrahydroquinolin-3-yl)urea] | > 30 µM
6 | N#Cc1ccc2c(c1)N(Cc1cccc(C(F)(F)F)c1)C(=O)[C@H](NC(N)=O)C2 [Example C-8, (R)-1-(7-cyano-2-oxo-1-(3-(trifluoromethyl)benzyl)-1,2,3,4-tetrahydroquinolin-3-yl)urea] | 3 to 30 µM
7 | NC(=O)N[C@@H]1Cc2ccc(F)cc2N(Cc2cc(C(F)F)ccc2F)C1=O [Example C-11, (R)-1-(1-(5-(difluoromethyl)-2-fluorobenzyl)-7-fluoro-2-oxo-1,2,3,4-tetrahydroquinolin-3-yl)urea] | < 3 µM
8 | NC(=O)N[C@@H]1Cc2ccc(Cl)cc2N(Cc2cc(C(F)F)ccc2F)C1=O [Example C-12, (R)-1-(7-chloro-1-(5-(difluoromethyl)-2-fluorobenzyl)-2-oxo-1,2,3,4-tetrahydroquinolin-3-yl)urea] | < 3 µM
9 | Cc1ccc2c(c1)N(Cc1cc(C(F)F)ccc1F)C(=O)[C@H](NC(N)=O)C2 [Example C-13, (R)-1-(1-(5-(difluoromethyl)-2-fluorobenzyl)-7-methyl-2-oxo-1,2,3,4-tetrahydroquinolin-3-yl)urea] | < 3 µM
10 | NC(=O)N[C@@H]1Cc2ccc(C(F)F)cc2N(Cc2cc(C(F)F)ccc2F)C1=O [Example C-14, (R)-1-(7-(difluoromethyl)-1-(5-(difluoromethyl)-2-fluorobenzyl)-2-oxo-1,2,3,4-tetrahydroquinolin-3-yl)urea] | < 3 µM
11 | NC(=O)N[C@@H]1Cc2ccc(C(F)(F)F)cc2N(Cc2cc(C(F)F)ccc2F)C1=O [Example C-15, (R)-1-(1-(5-(difluoromethyl)-2-fluorobenzyl)-2-oxo-7-(trifluoromethyl)-1,2,3,4-tetrahydroquinolin-3-yl)urea] | < 3 µM
12 | NC(=O)N[C@@H]1Cc2ccc(CO)cc2N(Cc2cc(C(F)F)ccc2F)C1=O [Example C-16, (R)-1-(1-(5-(difluoromethyl)-2-fluorobenzyl)-7-(hydroxymethyl)-2-oxo-1,2,3,4-tetrahydroquinolin-3-yl)urea] | < 3 µM
13 | NC(=O)N[C@@H]1Cc2c(F)cc(F)cc2N(Cc2cc(C(F)F)ccc2F)C1=O [Example C-17, (R)-1-(1-(5-(difluoromethyl)-2-fluorobenzyl)-5,7-difluoro-2-oxo-1,2,3,4-tetrahydroquinolin-3-yl)urea] | < 3 µM
14 | NC(=O)N[C@@H]1Cc2ccc(C(F)F)cc2N(Cc2cc(OC(F)(F)F)ccc2F)C1=O [Example C-18, (R)-1-(7-(difluoromethyl)-1-(2-fluoro-5-(trifluoromethoxy)benzyl)-2-oxo-1,2,3,4-tetrahydroquinolin-3-yl)urea] | < 3 µM
15 | NC(=O)N[C@@H]1Cc2ccc(C(F)F)cc2N(Cc2cc(S(F)(F)(F)(F)F)ccc2F)C1=O [Example C-19, (R)-1-(7-(difluoromethyl)-1-(2-fluoro-5-(pentafluorosulfanyl)benzyl)-2-oxo-1,2,3,4-tetrahydroquinolin-3-yl)urea] | < 3 µM
16 | NC(=O)N[C@@H]1Cc2ccc(C(F)F)cc2N(Cc2cc(C(O)(C(F)(F)F)C(F)(F)F)ccc2F)C1=O [Example C-20, (R)-1-(7-(difluoromethyl)-1-(2-fluoro-5-(1,1,1,3,3,3-hexafluoro-2-hydroxypropan-2-yl)benzyl)-2-oxo-1,2,3,4-tetrahydroquinolin-3-yl)urea] | < 3 µM
17 | NC(=O)N[C@@H]1Cc2ccc(F)cc2N(Cc2cc(C(F)(F)F)cc(Cl)c2F)C1=O [Example C-21, (R)-1-(1-(3-chloro-2-fluoro-5-(trifluoromethyl)benzyl)-7-fluoro-2-oxo-1,2,3,4-tetrahydroquinolin-3-yl)urea] | < 3 µM

Results, then the compound that gave them:

Row | IC50 | SMILES
18 | < 3 µM | NC(=O)Nc1cc(Br)cn(Cc2cc(C(F)(F)F)ccc2F)c1=O [Example B-1, 1-(5-bromo-1-(2-fluoro-5-(trifluoromethyl)benzyl)-2-oxo-1,2-dihydropyridin-3-yl)urea]
19 | < 3 µM | CC(C)(C)OC(=O)NCCc1cc(NC(N)=O)c(=O)n(Cc2cc(C(F)(F)F)ccc2F)c1 [Example B-3, tert-butyl (2-(1-(2-fluoro-5-(trifluoromethyl)benzyl)-6-oxo-5-ureido-1,6-dihydropyridin-3-yl)ethyl)carbamate]
20 | < 3 µM | Cc1ccc(NC(N)=O)c(=O)n1Cc1cc(C(F)(F)F)ccc1F [Example B-4, 1-(1-(2-fluoro-5-(trifluoromethyl)benzyl)-6-methyl-2-oxo-1,2-dihydropyridin-3-yl)urea]
21 | < 3 µM | Cc1ccc(NC(N)=O)c(=O)n1Cc1cc(C(F)(F)F)cc(Cl)c1F [Example B-5, 1-(1-(3-chloro-2-fluoro-5-(trifluoromethyl)benzyl)-6-methyl-2-oxo-1,2-dihydropyridin-3-yl)urea]
22 | < 3 µM | NC(=O)Nc1cc(C(F)(F)F)cn(Cc2cc(C(F)(F)F)ccc2F)c1=O [Example B-6, 1-(1-(2-fluoro-5-(trifluoromethyl)benzyl)-2-oxo-5-(trifluoromethyl)-1,2-dihydropyridin-3-yl)urea]
23 | < 3 µM | N#Cc1ccc(NC(N)=O)c(=O)n1Cc1cc(C(F)(F)F)ccc1F [Example B-7, 1-(6-cyano-1-(2-fluoro-5-(trifluoromethyl)benzyl)-2-oxo-1,2-dihydropyridin-3-yl)urea]
24 | < 3 µM | Cc1ncc(NC(N)=O)c(=O)n1Cc1cc(C(F)(F)F)cc(Cl)c1F [Example B-8, 1-(1-(3-chloro-2-fluoro-5-(trifluoromethyl)benzyl)-2-methyl-6-oxo-1,6-dihydropyrimidin-5-yl)urea]
25 | < 3 µM | CNC(=O)Nc1ccc(C)n(Cc2cc(C(F)(F)F)cc(Cl)c2F)c1=O [Example B-10, 1-(1-(3-chloro-2-fluoro-5-(trifluoromethyl)benzyl)-6-methyl-2-oxo-1,2-dihydropyridin-3-yl)-3-methylurea]
26 | < 3 µM | Cc1ccc(NC(=O)NC2CC2)c(=O)n1Cc1cc(C(F)(F)F)cc(Cl)c1F [Example B-11, 1-(1-(3-chloro-2-fluoro-5-(trifluoromethyl)benzyl)-6-methyl-2-oxo-1,2-dihydropyridin-3-yl)-3-cyclopropylurea]
27 | < 3 µM | NC(=O)N[C@@H]1Cc2ccccc2N(Cc2cc(C(F)F)ccc2F)C1=O [Example C-4, (R)-1-(1-(5-(difluoromethyl)-2-fluorobenzyl)-2-oxo-1,2,3,4-tetrahydroquinolin-3-yl)urea]
28 | < 3 µM | NC(=O)N[C@@H]1Cc2ccccc2N(Cc2cccc3c2OC(F)(F)O3)C1=O [Example C-5, (R)-1-(1-((2,2-difluorobenzo[d][1,3]dioxol-4-yl)methyl)-2-oxo-1,2,3,4-tetrahydroquinolin-3-yl)urea]
29 | < 3 µM | Cc1ccc2c(c1)N(Cc1cccc(C(F)(F)F)c1)C(=O)[C@H](NC(N)=O)C2 [Example C-6, (R)-1-(7-methyl-2-oxo-1-(3-(trifluoromethyl)benzyl)-1,2,3,4-tetrahydroquinolin-3-yl)urea]
30 | < 3 µM | COc1ccc2c(c1)N(Cc1cccc(C(F)(F)F)c1)C(=O)[C@H](NC(N)=O)C2 [Example C-7, (R)-1-(7-methoxy-2-oxo-1-(3-(trifluoromethyl)benzyl)-1,2,3,4-tetrahydroquinolin-3-yl)urea]
31 | < 3 µM | NC(=O)N[C@@H]1Cc2c(F)cccc2N(Cc2cc(C(F)(F)F)ccc2F)C1=O [Example C-9, (R)-1-(5-fluoro-1-(2-fluoro-5-(trifluoromethyl)benzyl)-2-oxo-1,2,3,4-tetrahydroquinolin-3-yl)urea]
32 | < 3 µM | NC(=O)N[C@@H]1Cc2ccc(C(F)F)cc2N(Cc2cc(C(F)(F)F)ccc2F)C1=O [Example C-10, (R)-1-(7-(difluoromethyl)-1-(2-fluoro-5-(trifluoromethyl)benzyl)-2-oxo-1,2,3,4-tetrahydroquinolin-3-yl)urea]
